The record followed here is US8951527B2, “Radioprotectants targeting thrombospondin-1 and CD47” (The United States of America, as represented by the …, priority 2008, dated 2015).

For the data set, the system named is HUVEC. The data set can be described thus: HUVEC proliferation post-radiation (BrdU incorporation). It counts as cell-based, human. The settings on record: treated 48 hours before 10 Gy, over 1 week (FIG. 14). As to the method: FIG. 14. TSP1 and CD47 antibodies or antisense suppression of CD47 maintain proliferation of irradiated HUVEC. HUVEC were plated in 96-well plates in growth medium and treated with CD47 morpholino (FIG. 14A; *p<0.05, #p<0.01) TSP1, or CD47 antibodies (FIG. 14B; *p<0.05, #p<0.01) and exposed to 10 Gy irradiation 48 hours later. Cell proliferation at the indicated times post-radiation was determined by intracellular BrdU incorporation. Experiments were repeated 3 times, and results presented as the mean±SD.
FIG. 15. HUVEC protected by radioprotective agents are both viable and proliferate at a better rate than untreated cells in culture. Proliferation was assessed by quantifying incorporation of bromodeoxyuridine (BrdU) into newly synthesized DNA using a BrdU Cell Proliferation Assay. HUVEC were seeded into 96 well plates for 24 hours at 37° C., then treated with either antibody A6.1 or B6H12 or peptide 7N3. The treated cells were irradiated at 40 Gy 1 hour later. Control and irradiated plates were assayed for BrdU uptake over 96 hours post-radiation. The assay was performed according to the manufacturer's protocol, and the plates were read at 420 nm.
Cell proliferation assay: Proliferation was assessed by quantifying incorporation of bromodeoxyuridine (BrdU) into newly synthesized DNA using a BrdU Cell Proliferation Assay (Calbiochem, La Jolla, Calif.). Primary murine wild type, TSP1, TSP2, and CD47 null lung endothelial cells were seeded into 96 well plates at 5×10^4 cells/well density. After 24 hours incubation at 37° C. treatment groups were irradiated at 40 Gy. Control and irradiated plates were assayed for BrdU uptake over 24 hours starting at 48 to 168 hours post-radiation. The assay was performed according to the manufacturer's protocol, and the plates were read at 420 nm.
Proliferative capacities were also determined in endothelial cells exposed to high doses of radiation of 40 Gy. […] The assay was performed according to the manufacturer's protocol, and the plates were read at 420 nm.

For the sequence “CGTCACAGGCAGGACCCACTGCCCA (all phosphorodiamidate morpholino (PMO)) [CD47 morpholino, CD47 targeting morpholino oligonucleotide]”, the “proliferation (BrdU incorporation / DNA synthesis) after 10 Gy” value is “maintained proliferation”.
